Test results reported in the supplement of paper PMC10307832.

Compound: CC(C)(C)c1nc(-c2cccc(NS(=O)(=O)c3c(F)cccc3F)c2F)c(-c2ccnc(N)n2)s1 [Dabrafenib]
Test: relative viability (nuclei count vs DMSO), 5 days (fraction); higher = more cells survive
Outline: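 Viability was read as treated-well nuclei divided by vehicle-well nuclei, using the median across plates. Lung cancer cell lines in 1536-well plates were kept overnight at 37 °C, pinned with five √10-spaced library-drug doses, and after 5 days were Hoechst-stained, imaged at 4× and counted in MetaXpress. Plates passed only with control CV below 25% and at least one doubling.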

## SW 900
0.009487 µM
  relative viability: 0.84
0.03 µM
  relative viability: 0.589
0.09487 µM
  relative viability: 0.665
0.3 µM
  relative viability: 1.02
